The assay has as its system Swiss mice, Sarcoma 180 sc, mean tumor weight T/C. The experiment in a line: NCI In Vivo Anticancer Drug Screen. Data for tumor model Sarcoma 180 (subcutaneous) in Swiss mice. The note with it: endpoint: mean tumor weight, higher = larger tumour. Put shortly:
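Antitumor activity is assessed in mice with transplantable tumors. Treated (T) and vehicle control (C) groups are compared on survival or tumor size.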

Setting [1] is: dose: 150.0 mg/kg/injection, schedule: Q01DX007 (ip), vehicle: carboxymethylcellulose (CMC).
Setting [2] is: dose: 60.0 mg/kg/injection, schedule: Q01DX007 (ip), vehicle: carboxymethylcellulose (CMC).
The mark [3] stands for this setting: dose: 40.0 mg/kg/injection, schedule: Q01DX007 (ip), vehicle: carboxymethylcellulose (CMC).

Values joined by “and” are separate entries in the source; they are usually repeats but may differ in a detail not shown here. Identical values can stand only once.

For orientation: T/C means the ratio of treated to control.

In the case of `C[C@]12CC[C@H](O)CC1=CC[C@@H]1[C@@H]2CC[C@]2(C)c3nc4ccccc4cc3C[C@@H]12`, the T/C (dose: 15.6 mg/kg/injection, schedule: Q01DX007 (sc), vehicle: saline) was 93 % of control; the T/C (dose: 62.5 mg/kg/injection, schedule: Q01DX007 (sc), vehicle: saline) is 57 % of control; the T/C (dose: 125.0 mg/kg/injection, schedule: Q01DX007 (sc), vehicle: saline) was 95 % of control; the T/C (dose: 250.0 mg/kg/injection, schedule: Q01DX007 (sc), vehicle: saline) was 66 % of control; the T/C (dose: 500.0 mg/kg/injection, schedule: Q01DX007 (sc), vehicle: saline) is 93 % of control.
On to `CCCCCCCCCCCCCCCC[N+]1(C)CCN(SN2CC[N+](C)(CCCCCCCCCCCCCCCC)CC2)CC1`, for which the T/C (dose: 21.0 mg/kg/injection, schedule: Q#A X014 (ip), vehicle: saline) was 55 % of control and 77 % of control; the T/C (dose: 31.5 mg/kg/injection, schedule: Q#A X014 (ip), vehicle: saline) is 53 % of control and 76 % of control; the T/C (dose: 47.5 mg/kg/injection, schedule: Q#A X014 (ip), vehicle: saline) was 65 % of control; the T/C (dose: 71.5 mg/kg/injection, schedule: Q#A X014 (ip), vehicle: saline) is 37 % of control.
For the compound `CC1C/C=C2\CSC(NC(=O)/C3=C\N(C/C=C/C=C/C(O)CC(O)CC(=O)N3)C2=O)C(=O)O1` (stereo not given), the T/C is, setting by setting: (dose: 18.75 mg/kg/injection, schedule: Q01DX007 (ip), vehicle: carboxymethylcellulose (CMC)) 111 % of control; (dose: 37.5 mg/kg/injection, schedule: Q01DX007 (ip), vehicle: carboxymethylcellulose (CMC)) 112 % of control; under setting [1], 114 % of control; (dose: 187.0 mg/kg/injection, schedule: Q01DX007 (ip), vehicle: carboxymethylcellulose (CMC)) 68 % of control; (dose: 250.0 mg/kg/injection, schedule: Q01DX007 (ip), vehicle: carboxymethylcellulose (CMC)) 119 % of control; (dose: 375.0 mg/kg/injection, schedule: Q01DX007 (ip), vehicle: carboxymethylcellulose (CMC)) 91 % of control. Further, the T/C (dose: 500.0 mg/kg/injection, schedule: Q01DX007 (ip), vehicle: carboxymethylcellulose (CMC)) was 73 % of control.
Take `NCC(=O)O.[Zn+2]`: the T/C reads like this: (dose: 1.25 mg/kg/injection, schedule: Q01DX007 (iv), vehicle: water) 99 % of control; (dose: 2.5 mg/kg/injection, schedule: Q01DX007 (iv), vehicle: water) 83 % of control; (dose: 5.0 mg/kg/injection, schedule: Q01DX007 (iv), vehicle: water) 113 % of control; (dose: 10.0 mg/kg/injection, schedule: Q01DX007 (iv), vehicle: water) 95 % of control.
On to `CCCCCCCCCCCC1=C(O)C(=O)C(CC2=C(O)C(=O)C(CCCCCCCCCCC)=C(O)C2=O)=C(O)C1=O`, for which the T/C was 110 % of control (dose: 7.5 mg/kg/injection, schedule: Q01DX007 (ip), vehicle: carboxymethylcellulose (CMC)); 85 % of control (dose: 15.0 mg/kg/injection, schedule: Q01DX007 (ip), vehicle: carboxymethylcellulose (CMC)); 50 % of control (dose: 30.0 mg/kg/injection, schedule: Q01DX007 (ip), vehicle: carboxymethylcellulose (CMC)); 123 % of control under setting [2].
Take `CN1Cc2c(ccc3c2OCO3)[C@@H]2[C@H](O)Cc3cc4c(cc3[C@@H]21)OCO4`: the T/C under setting [1] is 93 % of control.
As to `O=CNC(Cc1cccc(N(CCCl)CCCl)c1)C(=O)O` (stereo not given), the T/C (dose: 2.5 mg/kg/injection, schedule: Q#A X014 (ip), vehicle: methylcellulose (MC)) is 45 % of control; the T/C (dose: 4.5 mg/kg/injection, schedule: Q#A X014 (ip), vehicle: methylcellulose (MC)) was 21 % of control and 25 % of control; the T/C (dose: 5.0 mg/kg/injection, schedule: Q#A X014 (ip), vehicle: methylcellulose (MC)) is 52 % of control; the T/C (dose: 7.5 mg/kg/injection, schedule: Q#A X014 (ip), vehicle: methylcellulose (MC)) is 18 % of control; the T/C (dose: 15.0 mg/kg/injection, schedule: Q#A X014 (ip), vehicle: methylcellulose (MC)) is 20 % of control.
As to `CC(C)CCCCCCCCCCCCC(=O)NCC(=O)NC1C(O)C(O)C(Nc2ncnc3nc[nH]c23)OC1C(O)CO` (stereo not given), the T/C by setting is: (dose: 0.3 mg/kg/injection, schedule: Q## X000 (ip), vehicle: carboxymethylcellulose (CMC)) 63 % of control; (dose: 0.44 mg/kg/injection, schedule: Q## X000 (ip), vehicle: carboxymethylcellulose (CMC)) 61 % of control; (dose: 0.6 mg/kg/injection, schedule: Q01DX007 (ip), vehicle: carboxymethylcellulose (CMC)) 58 % of control and 70 % of control; (dose: 0.66 mg/kg/injection, schedule: Q## X000 (ip), vehicle: carboxymethylcellulose (CMC)) 53 % of control; (dose: 0.9 mg/kg/injection, schedule: Q01DX007 (ip), vehicle: carboxymethylcellulose (CMC)) 36 % of control and 56 % of control; (dose: 1.0 mg/kg/injection, schedule: Q## X000 (ip), vehicle: carboxymethylcellulose (CMC)) 36 % of control. Besides, the T/C (dose: 1.35 mg/kg/injection, schedule: Q01DX007 (ip), vehicle: carboxymethylcellulose (CMC)) is 82 % of control.
Consider `C1CN1c1nc(N2CC2)nc(N2CC2)n1`, for which the T/C was 111 % of control (dose: 85.0 micrograms/kg/injection, schedule: Q01DX007 (ip), vehicle: carboxymethylcellulose (CMC)); 95 % of control (dose: 170.0 micrograms/kg/injection, schedule: Q01DX007 (ip), vehicle: carboxymethylcellulose (CMC)); 119 % of control (dose: 340.0 micrograms/kg/injection, schedule: Q01DX007 (ip), vehicle: carboxymethylcellulose (CMC)); 124 % of control (dose: 680.0 micrograms/kg/injection, schedule: Q01DX007 (ip), vehicle: carboxymethylcellulose (CMC)).
For the compound `O=c1[nH]c(=O)c2[nH]c(N=Nc3ccc(N(CCCl)CCCl)cc3)nc2[nH]1`, the T/C was 97 % of control (dose: 6.25 mg/kg/injection, schedule: Q#A X014 (ip), vehicle: saline); 72 % of control (dose: 12.5 mg/kg/injection, schedule: Q#A X014 (ip), vehicle: saline); 85 % of control (dose: 25.0 mg/kg/injection, schedule: Q#A X014 (ip), vehicle: saline); 34 % of control and 49 % of control (dose: 50.0 mg/kg/injection, schedule: Q#A X014 (ip), vehicle: saline); 36 % of control (dose: 100.0 mg/kg/injection, schedule: Q#A X014 (ip), vehicle: saline).
As to `C/C=C(/C)C(=O)O[C@H]1CCN2CC=C(COC(=O)[C@@](O)([C@H](C)OC)C(C)(C)O)[C@H]12`, the T/C by setting is: (dose: 12.0 mg/kg/injection, schedule: Q01DX007 (ip), vehicle: carboxymethylcellulose (CMC)) 117 % of control; (dose: 18.0 mg/kg/injection, schedule: Q01DX007 (ip), vehicle: carboxymethylcellulose (CMC)) 73 % of control; (dose: 26.6 mg/kg/injection, schedule: Q01DX007 (ip), vehicle: carboxymethylcellulose (CMC)) 48 % of control; under setting [3], 40 % of control.
Regarding `O=C(Nc1ccc2cc(S(=O)(=O)O)ccc2c1)c1ccc(N=Nc2c(S(=O)(=O)O)cc3cc(S(=O)(=O)O)cc(NC(=O)c4ccccc4)c3c2O)cc1`, the T/C runs as follows: (dose: 41.5 mg/kg/injection, schedule: Q#A X014 (ip), vehicle: methylcellulose (MC)) 52 % of control and 61 % of control and 77 % of control; (dose: 93.5 mg/kg/injection, schedule: Q#A X014 (ip), vehicle: methylcellulose (MC)) 44 % of control and 63 % of control.
With `Cc1cc2nc(Cc3nc4cc(C)c(C)cc4[nH]3)[nH]c2cc1C`, the T/C is, setting by setting: (dose: 20.0 mg/kg/injection, schedule: Q01DX007 (ip), vehicle: carboxymethylcellulose (CMC)) 86 % of control; under setting [3], 85 % of control; under setting [2], 80 % of control and 81 % of control; (dose: 80.0 mg/kg/injection, schedule: Q01DX007 (ip), vehicle: carboxymethylcellulose (CMC)) 102 % of control; (dose: 90.0 mg/kg/injection, schedule: Q01DX007 (ip), vehicle: carboxymethylcellulose (CMC)) 67 % of control; (dose: 120.0 mg/kg/injection, schedule: Q01DX007 (ip), vehicle: carboxymethylcellulose (CMC)) 122 % of control. Moreover, the T/C was 77 % of control (dose: 160.0 mg/kg/injection, schedule: Q01DX007 (ip), vehicle: carboxymethylcellulose (CMC)); 89 % of control (dose: 180.0 mg/kg/injection, schedule: Q01DX007 (ip), vehicle: carboxymethylcellulose (CMC)); 61 % of control (dose: 210.0 mg/kg/injection, schedule: Q01DX007 (ip), vehicle: carboxymethylcellulose (CMC)); 77 % of control (dose: 270.0 mg/kg/injection, schedule: Q01DX007 (ip), vehicle: carboxymethylcellulose (CMC)); 90 % of control and 100 % of control (dose: 320.0 mg/kg/injection, schedule: Q01DX007 (ip), vehicle: carboxymethylcellulose (CMC)); 57 % of control (dose: 478.0 mg/kg/injection, schedule: Q01DX007 (ip), vehicle: carboxymethylcellulose (CMC)). In addition, the T/C (dose: 717.0 mg/kg/injection, schedule: Q01DX007 (ip), vehicle: carboxymethylcellulose (CMC)) was 65 % of control.

The record behind these values is PubChem BioAssay AID342 (DTP/NCI, 2004).
